Assay results as given in article PMC9291756, “Pharmacokinetics of enflicoxib in dogs: Effects of prandial state and repeated administration” (Journal of Veterinary Pharmacology and Therapeutics, 2021).
Read-outs that look alike come from different tables or passages of the source.

Columns and labels:
[1] = parameters: method as in Ecuphar/Animalcare internal data; settings: ref Ecuphar/Animalcare internal data; cited from earlier work
plasma proteins = assay: In vitro plasma protein binding (rapid equilibrium dialysis); type: in vitro ADME; settings: pH 7.4, dog plasma, 160, 400 and 1600 ng/ml (0.4, 1, 4 µM), 37°C, mean values
Experimental: Equilibrium dialysis studies were performed using the Rapid Equilibrium Dialysis (RED) devices (Waters et al., [2008]) that consist of two chambers separated with a dialysis membrane with a cut‐off of 8.0 kDa (Pierce Biotechnology, ThermoFisher Scientific). The plasma protein binding was determined with blank canine plasma spiked with enflicoxib or its pyrazol metabolite. The highly bound compound tolterodine was used as a positive control. Stock solutions of the tested compounds were prepared at 10 mM concentration in DMSO and were immediately used or stored at −20 °C (±5°C) until further use.
Samples were prepared by spiking dog plasma with the compounds at three increasing concentrations (0.4 µM, 1 µM and 4 µM). Plasma samples were loaded (200 µl) in the donor chambers while the opposite chamber contained 350 µl of dialysis buffer (0.1 M phosphate buffer, pH 7.4). Dialysis was run at 37°C for 4 h with continuous shaking. […] The unbound fractions for enflicoxib or its pyrazol metabolite were determined by LC‐MS/MS using a modification of the previously described method. […]
The percent of binding to plasma proteins was calculated as: %Protein binding = (Cdonor‐Cacceptor)/Cdonor∗100. where: Cdonor = Concentration in the donor chamber after dialysis; Cacceptor = Concentration in the acceptor chamber after dialysis. […]
For each plasma sample, protein binding was determined in triplicate.

[2] = Single intravenous dose pharmacokinetic study
Experimental: (§1) For the IV administration, a stable 2 mg/ml enflicoxib injectable solution was prepared in a vehicle containing 20% ethanol, 8% kolliphor HS‐15 and 72% water, and sterilised using a ≤0.22‐µm syringe filter. To avoid administering an excessive volume of product, dogs in the IV group received a single dose of 2 mg/kg and were followed for 35 days. A 22‐gauge ¾” catheter was introduced into the cephalic vein, using aseptic technique. A syringe with sterile saline was used to test the patency of the vein. The calculated volume of the solution was slowly administered through the catheter over approximately 1 min. Approximately 1–2 ml of sterile saline was used to flush the catheter following drug administration.
(§2) Blood samples (2 ml) were collected from the jugular vein in K3EDTA tubes for determination of plasma concentrations of enflicoxib and its metabolites, at the following time points:
(§3) Blood samples were centrifuged within 30 min after collection at 2500 g for 10 min at ca. +5 °C. The resultant plasma was divided into 2 aliquots and frozen at ca. −20°C until analysis.
(§4) Method for enflicoxib and its pyrazol metabolite in plasma involved its extraction from 100 µL samples by solid phase extraction (Oasis MCX 30 μm 96‐well plates, 10 mg; Waters) and separated by reverse‐phase liquid chromatography on a Luna PFP (2) column (3 μm, 50 × 4.6 mm; Phenomenex), in gradient mode elution using 0.1% FA in water and MeOH 60:40 (v/v) as mobile phase flushed a flow rate of 1 ml/min. Celecoxib was used as internal standard.
(§5) The pharmacokinetic parameters were obtained from the individual plasma concentration‐time profiles of enflicoxib or its metabolites in each animal, by non‐compartmental analysis using Phoenix® WinNonLin® software (version 8.0. Pharsight Corporation). For all calculations, values below lower limit of quantification (BLLOQ) were considered as “0” except trailing concentrations, which were excluded from calculations.
(§6) Additional pharmacokinetic parameters calculated for the IV treatment were plasma clearance (CL) as CL = Dose/AUCinf; volume of distribution at steady‐state (Vss) as Vss = MRTINF × CL; volume of distribution based on the terminal phase (Vz) as Vz = CL/ λz); and Mean resident time (MRT) was calculated as MRT = AUMC/AUC, with AUMC being the area under the first moment curve. For enflicoxib, C0 was calculated as the extrapolated plasma concentration at time zero after IV administration.

COX‐2 = settings: in vitro and in vivo; ref Iñiguez et al., 2010; Wagemakers et al., 2009; cited from earlier work
[3] = Single oral dose pharmacokinetic study, fed or fasted; settings: for bioavailability / half-life / Tmax: both, Beagle, dog, plasma; for bioavailability: F% (absolute oral bioavailability); for Tmax: single oral 8 mg/kg enflicoxib, median [min-max]
Excerpt: (§7) Thirty healthy Beagle dogs (males and females) of 1–5 years old at the time of dosing, and bodyweight between 7.4 and 12.3 kg, were housed indoors in climate‐controlled facilities in accordance with accepted laboratory animal care and use guidelines. As the animals belonged to the same centre, they were acclimatised for 5 days before study initiation.
(§8) Dogs were offered approximately 400 g of pelleted canine feed once daily. Fresh potable water was offered ad libitum. All dogs, except those in the Oral‐Fed group, were fasted overnight before dosing and food was offered after the 4‐h blood collection. Dogs in the Oral‐Fed group were supplied with 50% of their daily food ration approximately 1 h before administration, and the remainder of the food was given after the first 15‐min blood collection period post administration.
(§9) The oral groups received a single oral nominal dose of 8 mg/kg of enflicoxib (Daxocox® tablets for dogs, Ecuphar/Animalcare) in its final formulation and were followed for 126 days. The dog’s mouth was opened, the dose placed towards the back of the tongue, and 5 ml of water was administered following the dose to aid in swallowing.
as §2
(§10) Oral groups: Before administration (pre‐dose; Day 1 to Day 0), 15 and, 30 min, 1, 2, 4, 6, 8, 12, 24, 48 h and 3, 4, 6, 7, 10, 14, 21, 28, 42, 56, 70, 84, 98, 112, and 126 days post administration, with the aim to characterise the complete pharmacokinetic profile of the pyrazol metabolite.
as §3
(§11) Plasma concentrations of enflicoxib and its metabolites were measured by two HPLC methods coupled with MS/MS detection (MRM) in negative ion electrospray mode.
as §4, §5

[4] = In vitro blood to plasma partitioning; settings: female, Beagle, dog, whole blood
Experimental: Whole blood was obtained from 3 untreated female Beagle dogs (located in Isoquimen SL, Sant Feliu de Codines, Barcelona, Spain) and pooled into two different batches. Lithium heparin was used as anticoagulant. Blood was maintained in a rotator shaker at room temperature before use.
The derived working solutions were freshly prepared each day of experimentation.
The haematocrit (H), percent of total blood cells in whole blood samples (v/v), was determined before the assay. […] The samples were incubated separately (n = 3) at ca 37°C for 60 min under gentle agitation in a rotator shaker in polypropylene tubes. The concentration of organic solvent in the incubates was kept below 0.05% to prevent haemolysis. Reference plasma was incubated similarly in Eppendorf protein LoBind tubes as a surrogate matrix of whole blood to assess total drug concentration (Cb).
For the enflicoxib and pyrazol metabolite determination, the plasma specimens were mixed with AcN containing the internal standard celecoxib for protein precipitation (1:3 ratio plasma: solution). […] After centrifugation, the supernatants were diluted with 0.1% FA in water: AcN (90:10) and injected into the LC‐MS/MS system. […] Blank samples were processed as described before, and were used to check the selectivity and carry‐over of the LC‐MS/MS analytical runs.
The quantification of each test item in plasma was performed using calibration curves ranging from 0.05 to 20 µg/ml. […] In both cases, the LC‐MS/MS response ratios (peak area of analyte/peak area Internal Standard) were used for quantitation.
The analyte concentration obtained from LC‐MS/MS analysis in each sample was used to calculate the blood‐plasma concentration ratio (C b/C p) as follows:
C b/C p = [(concentration in reference plasma; Equivalent to concentration in whole blood) / (concentration in plasma from whole blood)].
From these values, the red blood cells (RBC) to plasma ratio (K RBC/PL) was also calculated using the following equation: KRBC/PL=1/H×Cb/Cp‐1+1 where H: haematocrit.

[5] = Distribution into synovial fluid after IV administration; settings: day 35 after IV 2 mg/kg enflicoxib
Excerpt: (§12) The distribution into synovial fluid was prospectively investigated in samples corresponding to the last collection timepoint after the IV administration.
(§13) Samples of synovial fluid from the 10 dogs in the IV group were obtained under anaesthesia at 35 days post administration. Blank synovial fluid was obtained from 8 non‐dosed dogs at the same study facilities and pooled before being used for preparation of calibration curve and quality control samples for the qualification of the bioanalytical method.
(§14) Method for hydroxylated pyrazoline metabolite in plasma and for enflicoxib, pyrazol metabolite and hydroxylated pyrazoline metabolite in synovial fluid used the protein‐precipitation technique for extraction from dog samples (50 µl). The analytes were separated by reverse‐phase liquid chromatography on a Kinetex F5 100 Å column (100 × 3.0 mm; Phenomenex), in gradient mode elution using 0.1% FA in water and MeOH as mobile phase flushed a flow rate of 0.75 ml/min. Celecoxib was also used as internal standard.
(§15) For synovial fluid samples, the ratio of synovial fluid to plasma for enflicoxib and its metabolites was calculated at day 35 after IV administration.

[6] = Multiple dose oral toxicokinetic (target animal safety) study; settings: for AUC / Cmax: both, Beagle, dog, plasma, po; for AUC: AUC168, group 1X; for accumulation ratio, loading dose normalised to maintenance dose: weeks 13 and 31 vs week 1, all dose levels
Excerpt: (§16) This study was designed as a Target Animal Safety (TAS) study, to assess the effects of repeated oral administrations of enflicoxib at either the recommended dose (1X), three times the dose (3X) or five times the dose (5X), that were compared to an untreated group (placebo, 0X) and followed the internationally agreed TAS guideline (VICH GL[43], [2008]). Blood samples were taken during the study to assess the dose‐exposure proportionality after single and repeated dose administrations.
(§17) Thirty‐two male and female healthy Beagle dogs, 8–10 months old and experimentally naïve, were obtained from a laboratory animal supplier. All animals were acclimatised for 28 days before study initiation. All dogs were housed in pairs of the same sex and dose group in indoor pens under temperature and humidity‐controlled conditions (15 to 24°C, 40–70% RH). Artificial lighting was provided for approximately 12 h per day. […] For each group, periods of exercise and socialisation were permitted daily. Animals were fed daily with 400 g of a certified commercial pelleted diet.
(§18) Dogs were stratified by sex and weight, (16 males weighing 6.7–9.9 kg and 16 females weighing 5.3–7.0 kg) and allocated to four groups (0X, 1X, 3X and 5X) using a pseudo‐random body weight stratification procedure, which yielded groups of four dogs of each sex with approximately equal mean body weight. Dogs were distributed in a block of several adjacent pens and identified by a microchip inserted shortly after arrival.
(§19) Enflicoxib was supplied as commercial Daxocox® tablets containing 15, 30, 45, 70 or 100 mg of enflicoxib (Ecuphar/Animalcare). The number and size of the tablets administered orally were calculated weekly based on the most recent body weights and the target dose level required. Tablets were administered once weekly, for a total of 13 weeks (5X group) or 32 weeks (0X, 1X and 3X groups). Tablets administration was followed by 10–20 ml tap water to facilitate passage of drug to the stomach.
(§20) Blood samples were collected as described for the determination of blood concentrations of enflicoxib and its pyrazol metabolite. The sampling schedule was at 6 h (on week 1 only), 24, 48, 72, 96, 120, 144 and 168 h post dose in weeks 1, 13 and 31, Additionally, weekly samples were taken prior to each dose throughout the study. Plasma was obtained and stored as described before.
(§21) The AUCt and AUCinf values were calculated with linear trapezoidal rule, and the extrapolation of AUCt to obtain AUCinf was performed using the observed concentration at the last time point. Due to the limited time between doses, the terminal rate constants (λz), and corresponding terminal half‐lives (t1/2), were calculated only for the parent compound. […] The accumulation ratios, based on AUC168 values of both compounds, were calculated at weeks 13 (last experimental week for the 5X group) and 31 (last experimental week for the other groups).
(§22) For the repeated oral dose study, analyses of variance were performed for week 1 and week 13 data separately, including all three dose levels to assess dose proportionality. For weeks 13 and 31, the analysis was done for the low and mid dose levels only, adjusted to 1 mg/kg. The factors in these analyses were dose group, time, sex and their interactions. Animal was included as a blocking factor since the same animals were bled on each sampling day. The data were logarithmically transformed prior to its analysis using SAS 9.4 (SAS Institute (2002) SAS OnlineDoc® Version Nine. SAS Institute Inc.).

[7] = dog, in vivo, iv, 2 mg/kg
Experimental: as §1, §2, §3, §4, §5, §6

[8] = dog, in vivo
Excerpt: as §16, §17, §18, §19, §20, §21, §22

[9] = dog, in vivo, iv, 2 mg/kg; remark: listed apart in the source
Excerpt: as §12, §13, §14, §15

[10] = dog, in vivo; remark: listed apart in the source
Excerpt: as §7, §8, §9, §2, §10, §3, §11, §4, §5

[11] = both, Beagle, dog, plasma, iv, 2 mg/kg

For NS(=O)(=O)c1ccc(N2N=C(C(F)(F)F)C[C@H]2c2ccc(F)cc2F)cc1 (racemic) [Enflicoxib, 4‐(5‐(2,4‐difluorophenyl)‐3‐(trifluoromethyl)‐4,5‐dihydro‐1H‐pyrazol‐1‐yl) benzenesulfonamide], the solubility in water [1] is listed as “practically insoluble”, the fraction unbound at 4 h (plasma proteins) is listed as 0.0099 to 0.0262 and the t1/2 ([2]; IV 2 mg/kg enflicoxib, harmonic mean [min-max], pyrazol metabolite n=4) is listed as 19.77 [11.2–29.7] h. The Vd [2, 11] was 4 L/kg, the clearance [2, 11] was 2.33 mL/min/kg and the half-life ([2]; both, Beagle, dog, plasma, iv, 2 mg/kg, t1/2, IV 2 mg/kg enflicoxib, harmonic mean [min-max], pyrazol metabolite n=4) was 20 h. The “inhibition of COX‐2 enzymatic activity” value (COX‐2) was “potent inhibitors”, the bioavailability ([3]; oral, 8 mg/kg, oral 8 mg/kg fasted vs IV 2 mg/kg) was 44% and the bioavailability ([3]; oral, 8 mg/kg, oral 8 mg/kg fed vs IV 2 mg/kg) was 63%. The half-life ([3]; other: IV or oral, whatever the feeding condition, terminal elimination half‐life (t1/2), all routes of administration (IV or oral, whatever the feeding condition)) was 20 h, the bioavailability ([3]; po, 8 mg/kg, oral 8 mg/kg fed vs IV 2 mg/kg) was 63.4% and the Tmax ([3]; po, 8 mg/kg, fasted) was 4 h. It also gave a Tmax ([3]; po, 8 mg/kg, fed) of 2 h, a half-life ([3]; po, 8 mg/kg, t1/2, single oral 8 mg/kg enflicoxib, fasted, harmonic mean) of 18.3 h and a half-life ([3]; po, 8 mg/kg, t1/2, single oral 8 mg/kg enflicoxib, fed, harmonic mean) of 19.7 h. The “F% (absolute oral bioavailability)” value ([3]; oral 8 mg/kg fasted vs IV 2 mg/kg) was 44.1%, the “increase of extent of absorption and plasma exposure by food” value ([3]; oral 8 mg/kg, fed vs fasted) was 43% and the “Frel% (relative oral bioavailability)” value ([3]; oral fed vs oral fasted, 8 mg/kg) was 143.3%. It also gave a blood plasma ratio at 60 min, 1 µg/ml [4] of 1.07, a blood plasma ratio at 60 min, 5 µg/ml [4] of 0.66 and a blood plasma ratio at 60 min, 15 µg/ml [4] of 0.66. The synovial fluid concentration [5] was “BLLOQ”, the tolerability ([6]; all three dose levels (1X, 3X, 5X), weekly oral, all dogs) was “well tolerated” and the AUC ([6]; 4 mg/kg, week 13, mean ± SD) was 47600 ng·h/mL. The AUC ([6]; 4 mg/kg, week 31, mean ± SD) was 64000 ng·h/mL, the Cmax ([6]; 4 mg/kg, group 1X (8 + 4 mg/kg weekly oral), week 1, mean ± SD, n=8) was 2020 ± 461 ng/mL and the Cmax ([6]; 4 mg/kg, group 1X, week 13, mean ± SD) was 878 ± 319 ng/mL. The Cmax ([6]; 4 mg/kg, group 1X, week 31, mean ± SD) was 1450 ± 374 ng/mL, the AUC ([6]; 8 mg/kg, week 1, mean ± SD) was 87900 ng·h/mL and the Cmax ([6]; 12 mg/kg, group 3X, week 13, mean ± SD) was 2760 ± 817 ng/mL. The Cmax ([6]; 12 mg/kg, group 3X, week 31, mean ± SD) was 3380 ± 1120 ng/mL, the Cmax ([6]; 20 mg/kg, group 5X (40 + 20 mg/kg), week 1, mean ± SD) was 9590 ± 2040 ng/mL and the Cmax ([6]; 20 mg/kg, group 5X, week 13, mean ± SD) was 4390 ± 1050 ng/mL. The Cmax ([6]; 24 mg/kg, group 3X (12 + 24 mg/kg as printed), week 1, mean ± SD) was 6050 ± 1390 ng/mL, the Normalised accumulation ratio ([6]; group 1X, week 13 vs week 1, based on AUC168) was 0.93 and the Normalised accumulation ratio ([6]; group 1X, week 31 vs week 1) was 1.05. It also gave a Normalised accumulation ratio ([6]; group 3X, week 13 vs week 1) of 0.9, a Normalised accumulation ratio ([6]; group 3X, week 31 vs week 1) of 1.15 and a Normalised accumulation ratio ([6]; group 5X, week 13 vs week 1) of 1. For the same compound, the “time of Cmax” value ([6]; week 1 after loading dose, all groups, 6 h = first sampling time) was 6 h, the “pre‐dose plasma concentration” value ([6]; week 13, all groups) was “below 100 ng/ml” and the “correlation coefficient, adjusted PK parameters (Cmax, AUC168) vs dose level” value ([6]; weeks 1 and 13, actual doses, linear regression) was “higher than 0.8”. The “accumulation ratio, loading dose normalised to maintenance dose” value [6] was about 1, the “accumulation ratio, loading dose normalised to maintenance dose” value ([6]; listed as parent compound) was “less than 1” and the “accumulation ratio based on AUC168 (not normalised)” value ([6]; weeks 13 and 31 vs week 1, all three dose levels) was “approximately 0.5”.
With NS(=O)(=O)c1ccc(-n2nc(C(F)(F)F)cc2-c2ccc(F)cc2F)cc1 [Pyrazol metabolite] the AUClast [7] was 1,56,500 ± 39,810 (25.4) ng·h/ml, the Cmax [7] was 384.5 ± 123.8 (32.2) ng/ml and the MRTlast [7] was 329.5 ± 27.46 (8.3) h. The Tmax [7] was 96 [48–96] h, the “accumulation ratio between weeks 13 and 31, range of dogs” value [8] was 0.56-1.49 and the “accumulation ratio week 31 vs week 13” value [8] was “around 1.3”. The “correlation coefficient, adjusted PK parameters (Cmax, AUC168) vs dose level” value [8] was over 0.9, the “inhibition of COX‐2 enzymatic activity” value (COX‐2) was “potent inhibitors” and the “ratio synovial fluid versus plasma” value [9] was 0.031-0.078. The “F% (absolute oral bioavailability)” value [10] was 49.3%, the “mean terminal elimination half‐life (t½)” value [10] was 408 h and the “terminal elimination half‐life (t1/2)” value [10] was 336 to 406 h. The AUCinf ([10]; po, 8 mg/kg) was 4,22,700 ± 2,54,500 (60.2) ng·h/ml, the AUClast ([10]; po, 8 mg/kg) was 3,91,500 ± 2,55,100 (65.2) ng·h/ml and the Cmax ([10]; po, 8 mg/kg) was 890.3 ± 551.3 (61.9) ng/ml. For the same compound, the Tmax ([10]; po, 8 mg/kg) was 120.00 [48.00–336.00] h, the “Tmax, oral doses (fed and fasted), median” value ([10]; po, 8 mg/kg) was 120 to 144 h and the t1/2 ([10]; po, 8 mg/kg) was 353.9 [255–491] h.
